Reference: a melting point compilation (Tetko et al.; mined from patent text by program, amines drawn as free bases though some values may be those of a salt)

`CC(C)NC(=O)c1ccc(-c2cnc3[nH]c(=O)n(CC4CCCCC4)c3n2)cc1` gave a melting point of 264 to 268 °C.
With `O=C1c2nccnc2C(O)N1c1ccc(Cl)cn1` (stereo unspecified) the melting point was 236 °C.
`CN(C)C1(c2ccccc2)CCC(CNC(=O)NCCc2c[nH]c3ccc(F)cc23)CC1` (stereo unspecified) showed a melting point of 70 to 73 °C.
`O=C1C(=O)c2c(nc3ccccn23)-c2cccc(Br)c21` showed a melting point of over 260 °C.
`O=C(O)c1ccc(Cl)c2c1CCNCC2` gave a melting point of 144 to 149 °C.
For `CCC1(CC)OC(=O)Nc2ccc(Br)cc21`, the melting point was 150 to 152 °C.
For `O=C1CCNC(=O)C1C(=O)c1ccccc1` (stereo unspecified), the melting point was 164 to 165 °C.
In the case of `COc1cc(N)c(Cl)cc1C(=O)N[C@@H]1CCN(CCCOc2ccc(F)cc2)C[C@H]1F` (relative stereo), the melting point is reported as 125 °C.
Work on `CC(=O)Nc1ccc(F)cc1S(=O)(=O)CC#N` yielded a melting point of 154 to 157 °C.
With `COc1cc(N2C(=O)C3(CC3)[C@@H](O)[C@@H]2C)ccc1C#N` the melting point was 167 to 169 °C.
In the case of `COC(=O)c1ccc(Oc2cc(-n3nc(C)n(C(F)F)c3=O)c(F)cc2Cl)cc1`, the melting point is reported as 97 to 98 °C.
For `CCOC(=O)C(Cc1ccc(OCCN2CCC(C)(C)c3cc(C(=NOC)c4ccccc4)ccc32)cc1)Nc1ccccc1C(=O)c1ccccc1` (stereo unspecified), the melting point was 78 to 80 °C.
In the case of `Cc1cc(N)n(C(CCc2ccccc2)=NO)n1`, the melting point is reported as 138 to 140 °C.
In the case of `Cc1nc(COC(=O)c2cccnc2C#N)cs1`, the melting point is reported as 93 °C.
Work on `Cc1noc(NS(=O)(=O)c2cccc3c(NC(=O)C(C)C)cccc23)c1C` yielded a melting point of 177 to 180 °C.
In the case of `O=C(Nc1cccc(S(=O)(=O)N(CCO)CCO)c1)c1cnn2c(C(F)F)cc(-c3ccc(C(F)(F)F)cc3)nc12`, the melting point is reported as 208 °C.
In the case of `O=[N+]([O-])c1ccc(C(Cl)Cl)cc1`, the melting point is reported as 44 to 46 °C.
Compound `CCCCCCCCCCCCCCCCCC(CCCCCCCCCCCCCCCCC)=NO` has a melting point of 66 to 67 °C.
For `COc1ccc2c(Cc3c(Cl)cncc3Cl)nnc(-c3ccccc3)c2c1`, the melting point was 206 to 208 °C.
`N#Cc1ccc(-c2nc(-c3ccc(F)cc3)c(-c3ccncc3)[nH]2)cc1` showed a melting point of 268 to 269 °C.
Work on `COc1ccc(C(F)(F)F)cc1Nc1ccc(C(F)(F)F)cc1[N+](=O)[O-]` yielded a melting point of 86 to 88 °C.
Work on `OC(CNC1CC1)c1cccc(F)c1` (stereo unspecified) yielded a melting point of 57.8 to 60 °C.
Compound `O=C(c1ccc(Br)cc1)N1CCN(CCCN2CCN(C(=O)c3ccc(Br)cc3)CC2)CC1` has a melting point of 170 to 173 °C.
`Cc1[nH]c(=O)n(-c2cc(C(=O)OC(C)C)c(Cl)cc2F)c(=O)c1C` gave a melting point of 155 to 157 °C.
With `N#Cc1ccc(-c2cnc(-c3ccc(C#N)cc3)nc2)cc1` the melting point was 305 to 306 °C.
For `CC1(c2ccc(O)cc2)Cc2cc(OCC(=O)O)c(Cl)c(Cl)c2C1=O` (stereo unspecified), the melting point was 220 to 222 °C.
For `COc1n[nH]c(=O)n1O`, the melting point was 211 °C.
With `COC(=O)CC(c1ccc(OC)c(OC)c1)N1C(=O)C2C=CCCC2C1=O` (stereo unspecified) the melting point was 100 to 102 °C.
Compound `O=c1[nH]c2ccccc2c(=O)n1Cc1ccc(Cl)c(Cl)c1` has a melting point of 274 to 275 °C.
With `CCOC(=O)NOC(=O)CCCCC(=O)ONC(=O)OCC` the melting point was 60 °C.
`CC(C)(OCc1nn(Cc2ccccc2)c2ccccc12)C(=O)NN` showed a melting point of 92 to 93 °C.
Compound `CC(=O)c1cc(S(=O)(=O)N(C)C)c(Cl)cc1Cl` has a melting point of 98 to 100 °C.
`N#Cc1ccc(-c2ccc(OC[C@H](O)CCc3cccnc3)cc2)cc1` showed a melting point of 135 to 136 °C.
With `Nc1c(-c2ccccc2)cc(-c2ccccc2)c2cccnc12` the melting point was 100 to 102 °C.
`CCc1cc(C(C)O)nn1-c1ccc([N+](=O)[O-])cc1` (stereo unspecified) gave a melting point of 127 to 128 °C.
In the case of `C#CCCCCn1ncc2c(N)c(C(=O)OCC=C)c(C)nc21`, the melting point is reported as 69 to 70 °C.
For `CCCCOCCOc1ccc(-c2ccc(N3CCC4(C3)OCCO4)c(C=C(C)C(=O)O)c2)cc1`, the melting point was 130 to 132 °C.
`COc1cccc(OC)c1C(=O)P(CC(C)C)C(=O)c1c(OC)cccc1OC` gave a melting point of 138 to 140 °C.
With `OCCNC(=S)NC(Cc1cccc2ccccc12)=Nc1ccccc1` the melting point was 155 to 156 °C.
Compound `CC(=O)N[C@@H](CO)C(=O)NCc1ccccc1` has a melting point of 147 to 148 °C.
For `O=C(Nc1ccc(Oc2ccccc2)cc1)N1CCN(c2ncnc3cc(OCc4ccccc4)c(OCc4ccccc4)cc23)CC1`, the melting point was 137 to 138 °C.
`COc1ccc(C)cc1NC(=O)Nc1ccc(C2=CCN(C(=O)Nc3ccc(OCC(O)CO)cc3Cl)CC2)cc1` (stereo unspecified) showed a melting point of 125 to 128 °C.
For `N#Cc1cccc(-c2c(C(N)=O)c3n(c2Cl)CCN(C(=O)NC2CCOCC2)C3)c1`, the melting point was 236 to 238 °C.
Compound `c1cc2c(c(OCC3CO3)c1)CC1OC1C2` (stereo unspecified) has a melting point of 85 to 87 °C.
With `CCCCC1(CCCC)CS(=O)(=O)c2ccc(N(C)C)cc2C(c2ccc(OCc3cccnc3CCC(=O)O)cc2)C1O` (stereo unspecified) the melting point was 105 to 107 °C.
Compound `CC12CCC(=O)C=C1CCC1C2CCC2(C)C(c3cccnc3)=CCC12` (stereo unspecified) has a melting point of 148 to 150 °C.
For `Cc1cnc(C2=NC(C)(C(C)C)C(=O)N2)c(C(O)(c2cccs2)c2cccs2)c1` (stereo unspecified), the melting point was 190 to 191 °C.
For `CCN(CC)C(=O)CCC(=O)c1cccc(C)c1N`, the melting point was 104 °C.
For `CCCCc1ccc2c(c1)Cc1ccccc1-2`, the melting point was 65 to 66.5 °C.
Work on `CCn1cc(C2(c3cccc(-c4cccnc4F)c3)N=C(N)N(C)C2=O)cc1CO` (stereo unspecified) yielded a melting point of 170 to 172 °C.
Compound `COc1ccc(C(=O)c2ccccc2)c([N+](=O)[O-])c1O` has a melting point of 137 to 139 °C.
